This passage reports IC50 results from patent US12122787B2, “Fused pyridone compound, and preparation method therefor and use thereof” (SHANGHAI JEMINCARE PHARMACEUTICALS CO., LTD, priority 2019, dated 2024).

What is called pIC50 is −log10 of the IC50, conventionally taken in molar units.

pIC50: −log10 of the molar value.

The subject of one assay is phosphorylated ERK (Thr202/Tyr204) in NCI-H358 cells expressing mutant RAS(G12C). Briefly: Inhibition of RAS-mediated signal transduction: phosphorylated ERK ELISA in NCI-H358 cells. The format is cell-based. The conditions noted are these: Homo sapiens, NCI-H358, 2 h, NCI-H358 cells, 2 hours of treatment, pERK normalized by Janus Green B; read-out: p-ERK IC50 (NCI H358). The protocol: The cells were treated with or without the compound of the present disclosure (dimethyl sulfoxide, DMSO), and the final concentration of DMSO was guaranteed to be 0.5%. After 2 hours of treatment, the medium was removed and 4% paraformaldehyde (Beyotime catalog number E672002-0100) was added and left to stand for 20 minutes. Cells were washed with PBS after fixation and incubated with precooled methanol for 10 min to permeabilize the cell membrane.
The level of phosphorylated ERK was detected using an enzyme linked immunosorbent assay (ELISA) method. […] The plates were washed 5 times with PBS containing 0.05% Tween 20. […] The reaction was stopped by adding 1 mol/L H2SO4, and the OD value was read at 450 nm by EnVision (PerkinElmer).
The total number of cells per well was detected by Janus Green B staining method. After detecting the level of phosphorylated ERK, the 96-well plate was washed with PBS until colorless, and 0.1% Janus Green B (Abcam catalogue number ab111622) was added to incubate for 10 minutes. After the 96-well plate was washed with double distilled water, 0.1 mol/L HCl was added, then the mixture was shaked and incubated for 10 minutes. The OD value was read at 595 nm by EnVision (PerkinElmer).
The signal of pERK (Thr202/Tyr204) was normalized by the signal value of Janus Green B, and the inhibition percentage after drug treatment relative to DMSO reference was calculated. The percentage values were fitted by a four-parameter dose-response curve and generated IC50 values.
A general note: An ELISA detects its analyte on a solid surface through an enzyme-linked reagent.
Turning to `C=CC(=O)N1C[C@@H]2C(=O)N(CCN(C)C)c3c(c4cc(F)c(-c5c(O)cccc5F)c(F)c4n(-c4c(C)ccnc4C(C)C)c3=O)N2C[C@H]1C` [Compound 24A], the pIC50 was 5.42.
Still for that read-out and setting: the same measure for `C=CC(=O)N1C[C@]2(CO)C(=O)N(C)c3c(c4cc(F)c(-c5c(O)cccc5F)nc4n(-c4c(C)ccnc4C(C)C)c3=O)N2C[C@H]1C` [Compound 51A]: 5.89.
Take `C=CC(=O)N1C[C@@H]2CN(CCCN(C)C)c3c(c4cc(F)c(-c5c(O)cccc5F)c(F)c4n(-c4c(C)ccnc4C(C)C)c3=O)N2C[C@H]1C` [Compound 34A]: the negative-log IC50 (pIC50) was 6.30.
As for `C=CC(=O)N1CCN2c3c(c(=O)n(-c4ccccc4C(C)C)c4nc(-c5c(O)cccc5F)c(F)cc34)OC[C@H]2C1` [Compound 12A], the negative logarithm of the IC50 (pIC50) was 6.22.
The same measure, in the same setting: the result for `C=CC(=O)N1C[C@@H]2COc3c(c4cc(F)c(-c5c(F)cccc5OC)nc4n(-c4ccccc4C(C)C)c3=O)N2C[C@H]1C` [Compound 1A] reads 6.76; that for `C=CC(=O)N1C[C@@H]2C(=O)N(C)c3c(c4cc(F)c(-c5ccccc5F)c(F)c4n(-c4c(C)ccnc4C(C)C)c3=O)N2C[C@H]1C` [Compound 31A], 5.67.
As for `C=CC(=O)N1C[C@@H]2COc3c(c4cc(Cl)c(-c5c(O)cccc5F)nc4n(C)c3=O)N2C[C@H]1C` [Compound 9], the pIC50 was 5.71.
With `C=CC(=O)N1C[C@@H]2COc3c(c4cc(Cl)c(-c5c(O)cccc5F)c(F)c4n(C[C@@H]4CCCN4C)c3=O)N2C[C@H]1C` [Compound 45A], the pIC50 is 5.81.
Consider `C=CC(=O)N1C[C@@H]2CNc3c(c4cc(F)c(-c5c(O)cccc5F)nc4n(-c4ccccc4C(C)C)c3=O)N2C[C@H]1C` [Compound 11A], for which the pIC50 is 5.95.
On to `C=CC(=O)N1C[C@@H]2C(=O)N(CCN(C)C)c3c(c4cc(F)c(-c5c(F)cccc5OC)c(F)c4n(-c4c(C)ccnc4C(C)C)c3=O)N2C[C@H]1C` [Compound 48A-1], for which the pIC50 is 6.53.
Take `C=CC(=O)N1C[C@@H]2COc3c(c4cc(F)c(-c5c(C)ccc6[nH]cnc56)nc4n(-c4ccccc4C(C)C)c3=O)N2C[C@H]1C` [Compound 17]: the pIC50 was 6.56.
`C=CC(=O)N1C[C@@H]2C(=O)N(C)c3c(c4cc(F)c(-c5c(N)cccc5F)c(F)c4n(-c4c(C)ccnc4C(C)C)c3=O)N2C[C@H]1C` [Compound 33A-1]: the pIC50 was 6.14.
With `C=CC(=O)N1C[C@@H]2C(=O)N(C)c3c(c4cc(F)c(-c5c(C)ccc6[nH]nc(C7CC7)c56)c(F)c4n(-c4c(C)ccnc4C(C)C)c3=O)N2C[C@H]1C` [Compound 47A], the pIC50 was 5.81.
Turning to `C=CC(=O)N1C[C@@H]2C(=O)N(C3CN(C)C3)c3c(c4cc(F)c(-c5c(F)cccc5OC)c(F)c4n(-c4c(C)ccnc4C(C)C)c3=O)N2C[C@H]1C` [Compound 43], the negative-log IC50 (pIC50) was 5.72.
As for `C=CC(=O)N1C[C@@H]2C(=O)N(C)c3c(c4cc(F)c(-c5ccccc5O)c(F)c4n(-c4c(C)ccnc4C(C)C)c3=O)N2C[C@H]1C` [Compound 46A], the pIC50 is 5.69.

The assay is the same for the next values; noted with them: NCI-H358 cells, 2 hours of treatment, pERK normalized by Janus Green B; read-out: p-ERK IC50 (NCI H358).
With `C=CC(=O)N1C[C@@H]2C(=O)N(C)c3c(c4cc(Cl)c(-c5c(O)cccc5F)c(F)c4n(-c4c(C)ccnc4C(C)C)c3=O)N2C[C@H]1C` [Compound 23B-1], the negative logarithm of the IC50 (pIC50) was 6.82.
In the case of `C=CC(=O)N1C[C@@H]2COc3c(c4cc(F)c(-c5c(O)cccc5F)c(F)c4n(-c4c(C)ccnc4C(C)C)c3=O)N2C[C@H]1C` (atropisomer, axis not shown) [Compound 3A-1], the negative logarithm of the IC50 (pIC50) was 5.52.
As to `C=CC(=O)N1C[C@@H]2CN(CC(=O)OC)c3c(c4cc(F)c(-c5c(O)cccc5F)c(F)c4n(-c4c(C)ccnc4C(C)C)c3=O)N2C[C@H]1C` [Compound 38B-1], the pIC50 is 5.95.
For `C=CC(=O)N1C[C@@H]2C(=O)N(CCN(C)C)c3c(c4cc(Cl)c(-c5c(O)cccc5F)c(F)c4n(-c4c(CC)ccnc4C(C)C)c3=O)N2C[C@H]1C` (atropisomer, axis not shown) [Compound 54A-2], the pIC50 was 6.07.
Regarding `C=CC(=O)N1C[C@@H]2C(=O)N(C)c3c(c4cc(F)c(-c5c(O)cccc5F)c(F)c4n(-c4c(C)ccnc4C(C)C)c3=O)N2C[C@H]1C` [Compound 21B-1], the pIC50 is 5.65.
As to `C=CC(=O)N1C[C@@H]2C(=O)N(C)c3c(c4cc(F)c(-c5c(O)cccc5F)c(F)c4n(-c4c(C)ccnc4C(C)C)c3=O)N2C[C@H]1C` [Compound 21B], the pIC50 is 6.51.
In the case of `C=CC(=O)N1C[C@@H]2COc3c(c4cc(F)c(-c5c(O)cccc5F)c(F)c4n(-c4c(C)ccnc4C(C)C)c3=O)N2C[C@H]1C` [Compound 3A], the pIC50 is 6.32.
As for `C=CC(=O)N1C[C@@H]2COc3c(c4cc(F)c(-c5c(F)cccc5OC)nc4n(-c4c(C)ccnc4C(C)C)c3=O)N2C[C@H]1C` (single isomer, unassigned) [Compound 6B], the pIC50 was 6.16.
Turning to `C=CC(=O)N1C[C@@H]2COc3c(c4cc(F)c(-c5c(C)ccc6[nH]ncc56)nc4n(-c4ccccc4C(C)C)c3=O)N2C[C@H]1C` (single isomer, unassigned) [Compound 13B], the pIC50 is 5.25.
As for `C=CC(=O)N1C[C@@H]2C(=O)Nc3c(c4cc(F)c(-c5c(O)cccc5F)c(F)c4n(-c4c(C)ccnc4C(C)C)c3=O)N2C[C@H]1C` [Compound 22B-1], the pIC50 is 6.67.
With `C=CC(=O)N1C[C@@H]2C(=O)N(C)c3c(c4cc(Cl)c(-c5c(O)cccc5F)c(F)c4n(-c4c(C)ccnc4C(C)C)c3=O)N2C[C@H]1C` [Compound 23B-2], the pIC50 is 6.13.
For the molecule `C=CC(=O)N1C[C@@H]2CN(CC(=O)OC)c3c(c4cc(F)c(-c5c(O)cccc5F)c(F)c4n(-c4c(C)ccnc4C(C)C)c3=O)N2C[C@H]1C` [Compound 38A-1], the pIC50 was 6.62.
Consider `C=CC(=O)N1C[C@@H]2C(=O)Nc3c(c4cc(F)c(-c5c(O)cccc5F)c(F)c4n(-c4c(C)ccnc4C(C)C)c3=O)N2C[C@H]1C` [Compound 22B], for which the pIC50 was 6.26.
Turning to `C=CC(=O)N1CC2COc3c(c4cc(F)c(-c5c(O)cccc5F)c(F)c4n(-c4c(C(C)C)ncnc4C(C)C)c3=O)N2CC1C` (single isomer, unassigned) [Compound 19B], the pIC50 is 6.03.
`C=CC(=O)N1C[C@@H]2CN(CC(=O)O)c3c(c4cc(F)c(-c5c(O)cccc5F)c(F)c4n(-c4c(C)ccnc4C(C)C)c3=O)N2C[C@H]1C` [Compound 39A]: the pIC50 was 6.10.
Take `C=CC(=O)N1C[C@@H]2CN(C)c3c(c4cc(F)c(-c5c(O)cccc5F)c(F)c4n(-c4c(C)ccnc4C(C)C)c3=O)N2C[C@H]1C` (atropisomer, axis not shown) [Compound 16B-1]: the pIC50 was 6.19.
As to `C=CC(=O)N1C[C@@H]2C(=O)N(C)c3c(c4cc(F)c(-c5c(O)cccc5F)c(F)c4n(-c4c(C)ccnc4C(C)C)c3=O)N2C[C@H]1C` [Compound 21A], the pIC50 was 7.89.
On the same count and under the same terms, the same measure for `C=CC(=O)N1C[C@@H]2CN(C)c3c(c4cc(F)c(-c5c(O)cccc5F)c(F)c4n(-c4c(C)ccnc4C(C)C)c3=O)N2C[C@H]1C` (single isomer, unassigned) [Compound 16B]: 5.90; for `C=CC(=O)N1C[C@@H]2COc3c(c4cc(F)c(-c5c(O)cccc5F)c(F)c4n(-c4c(C)ccnc4C(C)C)c3=O)N2C[C@H]1C` [Compound 3A-2]: 5.28; for `C=CC(=O)N1C[C@@H]2CN(CC(=O)O)c3c(c4cc(F)c(-c5c(O)cccc5F)c(F)c4n(-c4c(C)ccnc4C(C)C)c3=O)N2C[C@H]1C` [Compound 39A-1]: 5.78.
In the case of `C=CC(=O)N1C[C@@H]2C(=O)N(CCN(C)C)c3c(c4cc(Cl)c(-c5c(O)cccc5F)c(F)c4n(-c4c(CC)ccnc4C(C)C)c3=O)N2C[C@H]1C` [Compound 54A-1], the pIC50 was 6.19.
